{"source": "patent US20150283227A1", "about": "“SYNTHETIC ENV PROTEINS” (priority 2012, published 2015)", "key": {"BnAb CH01": {"test_system": "BnAb CH01", "assay": "SPR binding of V1V2 peptides/glycopeptides to captured mAb CH01", "design": "species or system human"}, "BnAb PG9": {"test_system": "BnAb PG9", "type": "binding, human", "quoted_text": "V1V2 glycopeptide binding Kd and rate constant measurements were carried out on a BIAcore 3000 instrument using an anti-human Ig Fc capture assay as described earlier (Alam, S. M.; McAdams, M.; Boren, D.; Rak, M.; Scearce, R. M.; Gao, F.; Camacho, Z. T.; Gewirth, D.; Kelsoe, G.; Chen, P.; Haynes, B. F. J. Immunol. 2007, 178, 4424-4435.). Anti-human IgG Fc antibody (Sigma Chemicals) was immobilized on a CM5 sensor chip to about 10000 response units (RU), and each antibody was captured to about 300 RU. Anti-RSV Synagis mAb was captured on the same sensor chip as a control surface. Non-specific binding and drift in signal was double referenced by subtracting binding to the control surface and blank buffer flow for each of the peptide binding interactions. All curve-fitting analyses were performed using global fit of multiple titrations to the 1:1 Langmuir model. All data analysis was performed using the BIAevaluation 4.1 analysis software (GE Healthcare)."}, "[1]": {"target": "Man3GlcNAc2 V1V2 glycopeptide, DMSO-oxidized disulfide-linked dimer (HIV-1 strain AE.CM244 (A244))", "assay": "SPR kinetics, mAb captured on anti-IgG, DMSO-oxidized dimer injected; 1:1 Langmuir"}, "[2]": {"target": "Man5GlcNAc2 V1V2 glycopeptide, DMSO-oxidized disulfide-linked dimer (HIV-1 strain AE.CM244 (A244))", "assay": "SPR kinetics, mAb captured on anti-IgG, DMSO-oxidized dimer injected; 1:1 Langmuir"}, "PG9 UCA": {"test_system": "PG9 UCA", "assay": "SPR binding to unmutated ancestor of PG9", "design": "species or system human", "description": "(§1) Only the V1/V2 mAb CH58 bound to the glycan-deficient (aglycone) peptide (FIG. 9A). V1/V2 bNAbs ([…], CH01) bound weakly to V1/V2 GlcNAc2 peptide (FIG. 9B). In contrast, both bNAbs PG9 and CH01 bound avidly to the glycopeptides, V1/V2 Man3GlcNAc2 and V1/V2 Man5GlcNAc2 (FIGS. 9C and 9D). CH58 bound weakly to both glycopeptides. Each of the mAbs was captured on a human Fc specific IgG directly immobilized on a BIAcore CM5 sensor chip. Each of the V1/V2 peptides (3 min at 50 uL/min) was injected over the mAb captured surface and SPR binding was monitored on a BIAcore 3000 instrument. Non-specific binding of peptides was subtracted following measurement of signal on a surface with a control ant-RSV mab Synagis.\n(§2) The binding Kd (disassociation constant) of the UAs ranges from about 0.15 to 0.2 μM.\n(§3) V1V2 glycopeptide binding Kd and rate constant measurements were carried out on BIAcore 3000 instruments as described earlier (Alam et al, Immunol. 178(7):4424-4435 (2007), Alam et al, J. Virol. 82(1):115-125 (2008)). Anti-human IgG Fc antibody (Sigma Chemicals) was immobilized on either a CM3 or CM5 (CM3 for kinetics and Kd determination) sensor chip (to minimize non-specific binding of peptides to chip matrix) to about 5000 Resonance Unit (RU) and each antibody was captured to about 100-200 RU on individual flow cells, in addition to one flow cell with the control Synagis mAb on the same sensor chip. Non-specific binding of V1V2 glycopeptide was double-referenced by substracting the control surface and blank buffer flow for each mAb-V1V2 glycopeptide binding interaction. […] SPR curve fitting analysis was performed using global fit of multiple titrations to the 1:1 Langmuir model. All data analysis was performed using the BIAevaluation 4.1 analysis software (GE Healthcare)."}, "V2 mAb CH58": {"test_system": "V2 mAb CH58", "assay": "SPR binding of V1V2 peptides/glycopeptides to captured V2 mAb CH58", "design": "species or system human"}, "CH58 UCA": {"target": "CH58 UCA", "assay": "SPR binding to unmutated ancestor of CH58", "design": "species or system human", "conditions": "Example 6; CH58 UCA; DMSO-oxidized dimer, 1-10 μg/mL", "description": "as §1, §3"}, "CH01 UCA": {"test_system": "CH01 UCA", "assay": "SPR binding to unmutated ancestor of CH01", "design": "species or system human", "description": "as §1, §2, §3"}, "[3]": {"assay": "Circular dichroism analysis of V1V2 peptides", "type": "physicochemical", "conditions": "dimerized in 20% DMSO-phosphate buffer about 20 h", "description": "Circular dichroism (CD) spectra of V1/V2 peptides were measured on an Aviv model 202 spectropolarimeter using a 1 mm path length quartz cuvette. The 20% DMSO-treated peptides were dialyzed against 20 mM phosphate buffer, pH 7.0 to remove DMSO using a dialysis cassette of MW cut-off 3500 Da. The CD spectra of peptides (at 100 200 μg/ml concentration) in phosphate buffer (pH 7.4) were recorded at 25° C. Three scans of the CD spectra of each peptide were averaged and the CD signal from phosphate buffer was subtracted out."}, "[4]": {"conditions": "glycans in the absence of the V2 peptide backbone"}, "[5]": {"conditions": "Example 5, peptides 200 μg/mL, glycans 25 μg/mL over captured PG9"}, "[6]": {"conditions": "Example 6, iodine-oxidized glycopeptide, 50 ug/mL"}, "[7]": {"conditions": "Example 6, spontaneously (air) oxidized, phosphate buffer, 50 ug/mL"}}, "note": "Entries after “also recorded” stand apart in the source; their conditions may differ. Like-named read-outs stand apart in the source and are kept apart here. Marks after values point to notes of the source that are not given here.", "data": [{"compound": "CC(=O)NC1C(O)OC(CO)[C@@H](O[C@@H]2OC(CO)[C@@H](O[C@@H]3OC(CO[C@H]4OC(CO)[C@@H](O)[C@H](O)C4O)[C@@H](O)[C@H](O[C@H]4O[C@@H](CO)[C@@H](O)C(O)C4O)C3O)[C@H](O)C2NC(C)=O)[C@@H]1O", "note": "(stereo partly drawn) [Man3GlcNAc2 glycan alone, [α-D-mannopyranosyl-(1→3)]-[α-D-mannopyranosyl-(1→6)]-β-D-mannopyranosyl-(1→4)-2-deoxy-2-N-acetyl-β-D-glucopyranosyl-(1→4)-2-deoxy-2-N-acetyl-D-glucopyranoside, reference compound]", "values": [{"measurement": "SPR binding to CH01", "setting": "BnAb CH01; [4]", "value": "not detected"}, {"measurement": "SPR binding to PG9", "setting": "BnAb PG9; [5]", "value": "minimal to no binding"}, {"measurement": "SPR binding to PG9", "setting": "BnAb PG9; Example 5, peptides 200 μg/mL, glycans 25 μg/mL over captured PG9, listed as Man3GlcNAc2 glycan", "value": "not detected"}, {"measurement": "SPR binding to PG9", "setting": "BnAb PG9; Example 5, peptides 200 μg/mL, glycans 25 μg/mL over captured PG9, listed as Man3GlcNAc2 oligosaccharide", "value": "not detected"}]}, {"compound": "CC(=O)NC1C(O)OC(CO)[C@@H](O[C@@H]2OC(CO)[C@@H](O[C@@H]3OC(CO[C@H]4OC(CO[C@H]5OC(CO)[C@@H](O)[C@H](O)C5O)[C@@H](O)[C@H](O[C@H]5O[C@@H](CO)[C@@H](O)C(O)C5O)C4O)[C@@H](O)[C@H](O[C@H]4O[C@@H](CO)[C@@H](O)C(O)C4O)C3O)[C@H](O)C2NC(C)=O)[C@@H]1O", "note": "(stereo partly shown) [Man5GlcNAc2 glycan alone, reference compound]", "values": [{"measurement": "SPR binding to CH01", "setting": "BnAb CH01; [4]", "value": "not detected"}, {"measurement": "SPR binding to PG9", "setting": "BnAb PG9; [5]", "value": "minimal to no binding"}, {"measurement": "SPR binding to PG9", "setting": "BnAb PG9; Example 5, peptides 200 μg/mL, glycans 25 μg/mL over captured PG9, listed as Man5GlcNAc2 glycan", "value": "not detected"}]}, {"compound": "CC(=O)N[C@H]1[C@H](O[C@H]2[C@H](O)[C@@H](NC(C)=O)C(O)O[C@@H]2CO)O[C@H](CO)[C@@H](O[C@@H]2O[C@H](CO[C@H]3O[C@H](CO[C@H]4O[C@H](CO)[C@@H](O)[C@H](O)[C@@H]4O)[C@@H](O)[C@H](O[C@H]4O[C@H](CO)[C@@H](O)[C@H](O)[C@@H]4O)[C@@H]3O)[C@@H](O)[C@H](O[C@H]3O[C@H](CO)[C@@H](O)[C@H](O)[C@@H]3O)[C@@H]2O)[C@@H]1O", "note": "(stereo partly shown) [Man5GlcNAc2 glycan alone, reference compound]", "values": [{"measurement": "SPR binding to PG9", "setting": "BnAb PG9; [5]", "value": "not detected"}]}, {"compound": "CH01 (antibody)", "values": [{"measurement": "Kd", "setting": "[1]", "value": 32.1, "unit": "nM"}, {"measurement": "koff", "setting": "[1]", "value": 0.00032, "unit": "s⁻¹"}, {"measurement": "kon", "setting": "[1]", "value": 9970, "unit": "M⁻¹ s⁻¹"}, {"measurement": "Kd", "setting": "[2]", "value": 45.5, "unit": "nM"}, {"measurement": "koff", "setting": "[2]", "value": 0.000302, "unit": "s⁻¹"}, {"measurement": "kon", "setting": "[2]", "value": 6640, "unit": "M⁻¹ s⁻¹"}]}, {"compound": "Man3GlcNAc2 V1V2", "values": [{"measurement": "SPR binding to PG9 UA", "setting": "PG9 UCA; Example 1", "value": "binds"}, {"measurement": "SPR binding to PG9 UCA", "setting": "PG9 UCA; Example 6", "value": "bound"}, {"measurement": "Kd", "setting": "PG9 UCA; Example 6, PG9 UCA, DMSO-oxidized dimer", "value": 1100, "unit": "nM"}, {"measurement": "Kd", "setting": "PG9 UCA; Example 6, PG9 UCA, DMSO-oxidized dimer, derived using faster component of dissociation phase", "value": 1060, "unit": "nM"}, {"measurement": "ka", "setting": "PG9 UCA; Table 1, PG9 UCA, DMSO-oxidized dimer", "value": "5.33 M^−1s^−1 (×10^3)"}, {"measurement": "SPR binding to CH58", "setting": "V2 mAb CH58; Example 1, antigen injected over captured mAb", "value": "bound weakly"}, {"measurement": "SPR binding to CH58", "setting": "V2 mAb CH58; [6]", "value": "bound"}, {"measurement": "SPR binding to CH58", "setting": "V2 mAb CH58; [7]", "value": "show binding"}, {"measurement": "Kd", "setting": "CH58 UCA", "value": 600, "unit": "nM"}, {"measurement": "SPR binding to CH01 UA", "setting": "CH01 UCA; Example 1", "value": "binds"}, {"measurement": "SPR binding to CH01 UCA", "setting": "CH01 UCA; Example 6", "value": "bound"}, {"measurement": "Kd", "setting": "CH01 UCA; Example 6, CH01 UCA, DMSO-oxidized dimer", "value": 1800, "unit": "nM"}, {"measurement": "Kd", "setting": "CH01 UCA; Example 6, CH01 UCA, DMSO-oxidized dimer, derived using faster component of dissociation phase", "value": 1780, "unit": "nM"}, {"measurement": "ka", "setting": "CH01 UCA; Table 1, CH01 UCA, DMSO-oxidized dimer", "value": "2.06 M^−1s^−1 (×10^3)"}, {"measurement": "β-strand (CD spectra deconvolution, K2D3)", "setting": "[3]", "value": 33, "unit": "%"}, {"measurement": "SPR binding to CH01", "setting": "BnAb CH01; Example 1, peptide injected over captured mAb, listed as V1/V2 Man3GlcNAc2", "value": "bound avidly; also recorded: bind selectively"}, {"measurement": "SPR binding to CH01", "setting": "BnAb CH01; [6]", "value": "not to the BnAbs CH01 or PG9"}, {"measurement": "SPR binding to CH01", "setting": "BnAb CH01; [7]", "value": "weak or no binding"}, {"measurement": "ka", "setting": "BnAb CH01; Table 1, CH01, DMSO-oxidized dimer", "value": "9.97 M^−1s^−1 (×10^3)"}, {"measurement": "SPR binding to PG9", "setting": "BnAb PG9; Example 1, peptide injected over mAb captured on anti-human Fc, BIAcore 3000, listed as V1/V2 Man3GlcNAc2", "value": "bound avidly; also recorded: bind selectively"}, {"measurement": "Kd", "setting": "BnAb PG9; Example 5, PG9, read-out: Kd (order of magnitude)", "value": "~100", "unit": "nM"}, {"measurement": "Kd", "setting": "BnAb PG9; Example 5, glycopeptide 1-40 μg/mL over captured PG9, not deliberately oxidized, global fit 1:1 Langmuir, read-out: Kd", "value": 119, "unit": "nM"}, {"measurement": "Kd", "setting": "BnAb PG9; Example 6, PG9, glycopeptide fully oxidized in 20% DMSO (dimer), listed as Man3, read-out: Kd", "value": 37, "unit": "nM"}, {"measurement": "Kd", "setting": "BnAb PG9; Example 6, PG9, glycopeptide fully oxidized in 20% DMSO (dimer), listed as Man3 GlcNAc2, read-out: Kd", "value": 37.1, "unit": "nM"}, {"measurement": "SPR binding to PG9", "setting": "BnAb PG9; [7]", "value": "weak or no binding"}, {"measurement": "ka", "setting": "BnAb PG9; Table 1, PG9, glycopeptide fully oxidized in 20% DMSO (dimer)", "value": "3.97 M^−1s^−1 (×10^3)"}]}]}
